Laboratory results taken from the NIST ThermoML archive (doi:10.1016/j.tca.2010.05.016).

Test: mn = molality of the nth substance listed, in mol/kg
Details: 101 kPa, Liquid; for speed of sound: Vibrating Tube; for mass density: Vibrating tube method

NCC(=O)NCC(=O)NCC(=O)O [glycylglycylglycine] + O
Details	mass density, 288.15 K [kg/m3]	mass density, 293.15 K [kg/m3]	mass density, 298.15 K [kg/m3]	mass density, 303.15 K [kg/m3]	mass density, 308.15 K [kg/m3]	speed of sound, 288.15 K [m/s]	speed of sound, 293.15 K [m/s]	speed of sound, 298.15 K [m/s]	speed of sound, 303.15 K [m/s]	speed of sound, 308.15 K [m/s]
m1 = 0.03587	1001.94	1001	999.808	998.381	996.783	1470.6	1486.7	1500.8	1512.9	1523.3
m1 = 0.04684	1002.79	1001.85	1000.64	999.208	997.565	1471.6	1487.8	1501.8	1514	1524.3
m1 = 0.05855	1003.69	1002.74	1001.52	1000.08	998.435	1473	1489	1503	1515.1	1525.4
m1 = 0.06301	1004.03	1003.07	1001.86	1000.41	998.76	1473.4	1489.4	1503.4	1515.5	1525.8
m1 = 0.07743	1005.13	1004.16	1002.93	1001.54	999.825	1475	1490.8	1504.8	1516.8	1527.3
m1 = 0.09073	1006.13	1005.15	1003.92	1002.46	1000.79	1476.5	1492.6	1506	1518.4	1528.5
m1 = 0.1016	1006.95	1005.96	1004.73	1003.26	1001.58	1477.7	1493.4	1507.3	1519.3	1529.5
